The text below walks through data of ChEMBL document CHEMBL2176958, “Novel aromatase inhibitors by structure-guided design” (J Med Chem, 2012).

One data set has as its target T1, Aromatase (Homo sapiens, UniProt P11511).
T1 sequence (P11511 whole entry): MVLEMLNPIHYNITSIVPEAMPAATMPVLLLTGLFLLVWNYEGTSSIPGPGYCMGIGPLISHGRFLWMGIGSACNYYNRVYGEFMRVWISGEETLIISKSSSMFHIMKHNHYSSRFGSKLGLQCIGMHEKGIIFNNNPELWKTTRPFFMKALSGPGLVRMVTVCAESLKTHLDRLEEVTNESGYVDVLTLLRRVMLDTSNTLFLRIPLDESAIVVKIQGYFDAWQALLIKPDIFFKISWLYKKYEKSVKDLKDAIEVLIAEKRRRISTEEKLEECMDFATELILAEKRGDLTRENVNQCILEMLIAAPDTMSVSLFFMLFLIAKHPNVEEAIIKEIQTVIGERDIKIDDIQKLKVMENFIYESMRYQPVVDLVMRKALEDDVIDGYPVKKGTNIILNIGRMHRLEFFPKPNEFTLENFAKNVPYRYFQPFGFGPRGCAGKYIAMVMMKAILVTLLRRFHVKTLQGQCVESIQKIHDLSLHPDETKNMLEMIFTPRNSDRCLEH
Description: Inhibition of human placental aromatase using [3H]-1beta-androstenedione as substrate after 16 hrs by [3H]-water method. The following applies: for inhibition (INH): human, 16 h.

Data set [1] is described as follows: (§1) Cytotoxicity against human MCF7a cells expressing Tet-off-3betaHSD1-Arom assessed as inhibition of TST-stimulated cell proliferation measured after 10 days. It counts as functional, cell-based. The following applies: 240 h.
Another data set relates to MCF7a. Described as §1. It counts as functional, cell-based.

Usually IC50 stands for the concentration at which inhibition is half-maximal. A high value points to weaker potency. A word on the EC50: it is the concentration giving half of the maximal effect. With `CC#CCO[C@@H]1C[C@@H]2[C@H](CC[C@]3(C)C(=O)CC[C@@H]23)[C@@]2(C)C=CC(=O)C=C12`, at Aromatase, the IC50 is 112 nM and the “inhibition (INH)” value is recorded as “Dose-dependent effect”. Further, the EC50 in data set [1] stood at 1.7 nM. Moreover, in the data set with MCF7a, the inhibition entry was “Dose-dependent effect”.
Consider `CO[C@@H]1C[C@@H]2[C@H](CC[C@]3(C)C(=O)CC[C@@H]23)[C@@]2(C)C=CC(=O)C=C12`, for which, on Aromatase, the IC50 worked out at 5200 nM and the “inhibition (INH)” value is recorded as “Dose-dependent effect”.
As for `CCCCC#CCO[C@@H]1C[C@@H]2[C@H](CC[C@]3(C)C(=O)CC[C@@H]23)[C@@]2(C)C=CC(=O)C=C12`, at Aromatase, half-maximal inhibition (IC50) required 181 nM and the “inhibition (INH)” value is reported as “Dose-dependent effect”. In data set [1], the concentration for a half-maximal effect (EC50) turned out to be 5.4 nM. Besides, the inhibition result with MCF7a was “Dose-dependent effect”.
In the case of `CCCCCCCC#CCO[C@@H]1C[C@@H]2[C@H](CC[C@]3(C)C(=O)CC[C@@H]23)[C@@]2(C)C=CC(=O)C=C12`, on Aromatase, the IC50 was determined as 2180 nM and the “inhibition (INH)” value is listed as “Dose-dependent effect”. Also, the inhibition entry with MCF7a is “Dose-dependent effect”.
For `CCC#CCO[C@@H]1C[C@@H]2[C@H](CC[C@]3(C)C(=O)CC[C@@H]23)[C@@]2(C)C=CC(=O)C=C12`, the “inhibition (INH)” value against Aromatase is on record as “Dose-dependent effect”. Besides, the concentration for a half-maximal effect (EC50) in data set [1] stood at 0.03 nM. In addition, the inhibition result in the data set with MCF7a is “Dose-dependent effect”.
As for `CCO[C@@H]1C[C@@H]2[C@H](CC[C@]3(C)C(=O)CC[C@@H]23)[C@@]2(C)C=CC(=O)C=C12`, at Aromatase, the midpoint of inhibition, the IC50, lay at 18100 nM and the “inhibition (INH)” value is recorded as “Dose-dependent effect”.
Take `C[C@]12C=CC(=O)C=C1[C@H](OCC#CCO)C[C@@H]1[C@@H]2CC[C@]2(C)C(=O)CC[C@@H]12`: on Aromatase, it took 20 nM to reach half-maximal inhibition (IC50) and the “inhibition (INH)” value is on record as “Dose-dependent effect”. For the same molecule, the EC50 in data set [1] was determined as 0.3 nM. Further, the inhibition result with MCF7a is “Dose-dependent effect”.
With `CCCC#CCO[C@@H]1C[C@@H]2[C@H](CC[C@]3(C)C(=O)CC[C@@H]23)[C@@]2(C)C=CC(=O)C=C12`, at Aromatase, 83 nM corresponded to half-maximal inhibition (IC50) and the “inhibition (INH)” value is “Dose-dependent effect”. Further, in data set [1], the EC50 was found to be 3.4 nM. In the data set with MCF7a, the inhibition result is “Dose-dependent effect”.
Consider `N#Cc1ccc(C(c2ccc(C#N)cc2)n2cncn2)cc1` [LETROZOLE], for which, on Aromatase, the “inhibition (INH)” value is reported as “Dose-dependent effect”. Besides, in data set [1], the EC50 is 0.004 nM.
`C[C@]12CCC(=O)C(O)=C1CC[C@@H]1[C@@H]2CC[C@]2(C)C(=O)CC[C@@H]12` [FORMESTANE]: at Aromatase, the half-inhibitory concentration (IC50) stood at 48.6 nM and the “inhibition (INH)” value is given as “Dose-dependent effect”.
